In patent publication US9302999B2, “Substituted triazoles as herbicides” (E. I. DU PONT DE NEMOURS AND COMPANY, priority 2012, dated 2016):

What was measured:
Format in all cases: in vivo
[1] = tested on: blackgrass (Alopecurus myosuroides); experiment: Test D pre-/postemergence: blackgrass
Procedure, shortened: (§1)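 Pre- and postemergence herbicide screen. Soil for pre: silt loam; post medium: peat moss, vermiculite, wetting agent, starter nutrients. Plant stage at post: 1- to 4-leaf. Readout: visual % control, 14–21 days.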

[2] = tested on: mustard, wild (wild mustard, Sinapis arvensis); experiment: Test D pre-/postemergence: mustard, wild
Source text: (§2) Seeds of plant species selected from bluegrass (annual bluegrass, Poa annua), blackgrass (Alopecurus myosuroides), canarygrass (Phalaris minor), chickweed (common chickweed, Stellaria media), galium (catchweed bedstraw, Galium aparine), bromegrass, downy (downy bromegrass, Bromus tectorum), field poppy (Papaver rhoeas), field violet (Viola arvensis), foxtail, green (green foxtail, Setaria viridis), deadnettle (henbit deadnettle, Lamium amplexicaule), ryegrass, Italian (Italian ryegrass, Lolium multiflorum), kochia (Kochia scoparia), lambsquarters (Chenopodium album), oilseed rape (Brassica napus), pigweed (Amaranthus retroflexus), Russian thistle (Salsola iberica), chamomile (scentless chamomile, Matricaria inodora), speedwell (bird's-eye speedwell, Veronica persica), barley, spring (spring barley, Hordeum vulgare), wheat, spring (spring wheat, Triticum aestivum), buckwheat, wild (wild buckwheat, Polygonum convolvulus), mustard, wild (wild mustard, Sinapis arvensis), oat, wild (wild oat, Avena fatua), radish, wild (wild radish, Raphanus raphanistrum), windgrass (Apera spica-venti), barley, winter (winter barley, Hordeum vulgare), and wheat, winter (winter wheat, Triticum aestivum) were planted into a silt loam soil and treated preemergence with test chemicals formulated in a non-phytotoxic solvent mixture which included a surfactant. At the same time, these same crop and weed species were planted in pots containing the planting medium comprising spaghnum peat moss, vermiculite, wetting agent and starter nutrients and treated with postemergence applications of the test chemicals formulated in the same manner. Plants ranged in height from 2 to 18 cm (1- to 4-leaf stage).
(§3) Treated plants and controls were maintained in a controlled growth environment for 14 to 21 days after which time all species were compared to controls and visually evaluated. Plant response ratings, summarized in Table D, are based on a scale of 0 to 100 where 0 is no effect and 100 is complete control. A dash (-) response means no test result.

[3] = tested on: kochia (Kochia scoparia); experiment: Test D pre-/postemergence: kochia
Source text: as §2, §3

[4] = tested on: foxtail, giant (giant foxtail, Setaria faberii); experiment: Test C pre-/postemergence: foxtail, giant
Procedure, shortened: (§4)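 Preemergence on seeds in loam/sand, postemergence on 2–18 cm (1–4-leaf) plants in peat-based medium; compounds in non-phytotoxic solvent with surfactant. After 13–15 days in greenhouse, visual rating versus controls, 0 (no effect) to 100 (complete control).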

[5] = tested on: bromegrass, downy (downy bromegrass, Bromus tectorum); experiment: Test D pre-/postemergence: bromegrass, downy
Source text: as §2, §3

[6] = tested on: soybean (Glycine max); experiment: Test C pre-/postemergence: soybean
Procedure, shortened: as §4

[7] = tested on: oilseed rape (Brassica napus); experiment: Test D pre-/postemergence: oilseed rape
Source text: as §2, §3

[8] = tested on: nightshade (eastern black nightshade, Solanum ptycanthum); experiment: Test C pre-/postemergence: nightshade; conditions: Preemergence
Source text: Seeds of plant species selected from blackgrass (Alopecurus myosuroides), bromegrass, downy (downy bromegrass, Bromus tectorum), foxtail, green (green foxtail, Setaria viridis), ryegrass, Italian (Italian ryegrass, Lolium multiflorum), winter wheat (Triticum aestivum), wild oat (Avena fatua), galium (catchweed bedstraw, Galium aparine), bermudagrass (Cynodon dactylon), surinam grass (Brachiaria decumbens), cocklebur (common cocklebur, Xanthium strumarium), corn (Zea mays), large crabgrass (Digitaria sanguinalis), woolly cupgrass (Eriochloa villosa), foxtail, giant (giant foxtail, Setaria faberii), goosegrass (Eleusine indica), johnsongrass (Sorghum halepense), kochia (Kochia scoparia), lambsquarters (Chenopodium album), morningglory (Ipomoea coccinea), nightshade (eastern black nightshade, Solanum ptycanthum), nutsedge, yellow (yellow nutsedge, Cyperus esculentus), pigweed (Amaranthus retroflexus), ragweed (common ragweed, Ambrosia elation), soybean (Glycine max), common (oilseed) sunflower (Helianthus annuus), Russian thistle (Salsola kali) and velvetleaf (Abutilon theophrasti) were planted into a blend of loam soil and sand and treated preemergence with test chemicals formulated in a non-phytotoxic solvent mixture which included a surfactant.
At the same time, plants selected from these crop and weed species and also barley (winter barley, Hordeum vulgare), canarygrass (Phalaris minor), chickweed (common chickweed, Stellaria media) windgrass (Apera spica-venti) and deadnettle (henbit deadnettle, Lamium amplexicaule) were planted in pots containing Redi-Earth® planting medium (Scotts Company, 14111 Scottslawn Road, Marysville, Ohio 43041) comprising spaghnum peat moss, vermiculite, wetting agent and starter nutrients and treated with postemergence applications of test chemicals formulated in the same manner. Plants ranged in height from 2 to 18 cm (1- to 4-leaf stage) for postemergence treatments.
as §3, with “greenhouse” for “controlled growth environment”, “13” for “14”, “15 days,” for “21 days”, “C,” for “D,”

[9] = tested on: galium (catchweed bedstraw, Galium aparine); experiment: Test D pre-/postemergence: galium
Procedure, shortened: as §1

[10] = Postemergence, 31 g ai/ha, scale 0 to 100 (0 no effect, 100 complete control)
[11] = Postemergence, 62 g ai/ha, scale 0 to 100 (0 no effect, 100 complete control)
[12] = Postemergence, 125 g ai/ha, scale 0 to 100, 0 no effect, 100 complete control
[13] = Postemergence, 250 g ai/ha, scale 0 to 100 (0 no effect, 100 complete control)
[14] = Postemergence, 16 g ai/ha, scale 0 to 100
[15] = Preemergence, 16 g ai/ha, scale 0 to 100 (0 no effect, 100 complete control)
[16] = Preemergence, 31 g ai/ha, scale 0 to 100 (0 no effect, 100 complete control)
[17] = Preemergence, 62 g ai/ha, scale 0 to 100
[18] = Preemergence, 125 g ai/ha, scale 0 to 100
[19] = Preemergence, 250 g ai/ha, scale 0 to 100
[20] = Preemergence, 31 g ai/ha, scale 0 (no effect) to 100 (complete control)
[21] = Preemergence, 62 g ai/ha, scale of 0 to 100, 0 is no effect, 100 is complete control
[22] = Preemergence, 125 g ai/ha, scale 0 to 100, 0 no effect, 100 complete control
[23] = Preemergence, 250 g ai/ha, scale 0 to 100, 0 no effect, 100 complete control

In the case of `CCOc1nn(-c2ccc(F)cc2)nc1Cc1ccnc(C(F)F)c1` [Compound 195], the “Plant response rating: Blackgrass” value [1, 10] is reported as 25, the “Plant response rating: Blackgrass” value [1, 11] is reported as 35 and the “Plant response rating: Blackgrass” value [1, 12] is reported as 50. For the same compound, the “Plant response rating: Blackgrass” value [1, 13] was 70, the “Plant response rating, Blackgrass” value [1, 14] was 20 and the “Plant response rating, Blackgrass” value [1, 15] was 0. For the same compound, the “Plant response rating, Blackgrass” value [1, 16] was 70, the “Plant response rating, Blackgrass” value [1, 17] was 75 and the “Plant response rating, Blackgrass” value [1, 18] was 80. For the same compound, the “Plant response rating, Blackgrass” value [1, 19] was 100, the “Plant response rating: Mustard, Wild” value [2, 10] was 80 and the “Plant response rating: Mustard, Wild” value [2, 11] was 80. For the same compound, the “Plant response rating: Mustard, Wild” value [2, 12] was 95, the “Plant response rating: Mustard, Wild” value [2, 13] was 100 and the “Plant response rating, Mustard, Wild” value [2, 14] was 60. For the same compound, the “Plant response rating, Mustard, Wild” value [2, 15] was 0, the “Plant response rating, Mustard, Wild” value [2, 16] was 10 and the “Plant response rating, Mustard, Wild” value [2, 17] was 40. The “Plant response rating, Mustard, Wild” value [2, 18] was 100, the “Plant response rating, Mustard, Wild” value [2, 19] was 100 and the “Plant response rating: Kochia” value [3, 10] was 85. The “Plant response rating: Kochia” value [3, 11] was 95, the “Plant response rating: Kochia” value [3, 12] was 100 and the “Plant response rating: Kochia” value [3, 13] was 100. For the same compound, the “Plant response rating, Kochia” value [3, 14] was 70, the “Plant response rating, Kochia” value [3, 15] was 40 and the “Plant response rating, Kochia” value [3, 16] was 50. For the same compound, the “Plant response rating, Kochia” value [3, 17] was 60, the “Plant response rating, Kochia” value [3, 18] was 80 and the “Plant response rating, Kochia” value [3, 19] was 85. The “Plant response rating, Foxtail, Giant” value [4, 10] was 35, the “Plant response rating, Foxtail, Giant” value [4, 11] was 35 and the “Plant response rating, Foxtail, Giant” value [4, 12] was 75. The “Plant response rating, Foxtail, Giant” value ([4]; Postemergence, 250 g ai/ha, scale 0 to 100) was 90, the “Plant response rating, Foxtail, Giant” value [4, 20] was 98 and the “Plant response rating, Foxtail, Giant” value [4, 21] was 98. The “Plant response rating, Foxtail, Giant” value [4, 22] was 100, the “Plant response rating, Foxtail, Giant” value [4, 23] was 100 and the “Plant response rating: Bromegrass, Downy” value [5, 10] was 15. The “Plant response rating: Bromegrass, Downy” value [5, 11] was 20, the “Plant response rating: Bromegrass, Downy” value [5, 12] was 35 and the “Plant response rating: Bromegrass, Downy” value [5, 13] was 40. The “Plant response rating, Bromegrass, Downy” value [5, 14] was 5, the “Plant response rating, Bromegrass, Downy” value [5, 15] was 0 and the “Plant response rating, Bromegrass, Downy” value [5, 16] was 0. The “Plant response rating, Bromegrass, Downy” value [5, 17] was 25, the “Plant response rating, Bromegrass, Downy” value [5, 18] was 35 and the “Plant response rating, Bromegrass, Downy” value [5, 19] was 50. The “Plant response rating, Soybean” value [6, 10] was 40, the “Plant response rating, Soybean” value [6, 11] was 40 and the “Plant response rating, Soybean” value [6, 12] was 65. For the same compound, the “Plant response rating, Soybean” value [6, 13] was 65, the “Plant response rating, Soybean” value [6, 20] was 0 and the “Plant response rating, Soybean” value [6, 21] was 0. The “Plant response rating, Soybean” value [6, 22] was 0, the “Plant response rating, Soybean” value [6, 23] was 25 and the “Plant response rating: Oilseed Rape” value [7, 10] was 85. For the same compound, the “Plant response rating: Oilseed Rape” value [7, 11] was 95, the “Plant response rating: Oilseed Rape” value [7, 12] was 100 and the “Plant response rating: Oilseed Rape” value [7, 13] was 100. The “Plant response rating, Oilseed Rape” value [7, 14] was 70, the “Plant response rating, Oilseed Rape” value [7, 15] was 0 and the “Plant response rating, Oilseed Rape” value [7, 16] was 0. The “Plant response rating, Oilseed Rape” value [7, 17] was 0, the “Plant response rating, Oilseed Rape” value [7, 18] was 10 and the “Plant response rating, Oilseed Rape” value [7, 19] was 20. For the same compound, the “Plant response rating, Nightshade” value ([8]; 31 g ai/ha, scale 0 (no effect) to 100 (complete control)) was 60, the “Plant response rating, Nightshade” value ([8]; 62 g ai/ha, scale of 0 to 100, 0 is no effect, 100 is complete control) was 85 and the “Plant response rating, Nightshade” value ([8]; 125 g ai/ha, scale 0 to 100, 0 no effect, 100 complete control) was 95. For the same compound, the “Plant response rating, Nightshade” value ([8]; 250 g ai/ha, scale 0 to 100, 0 no effect, 100 complete control) was 98, the “Plant response rating: Galium” value [9, 10] was 30 and the “Plant response rating: Galium” value [9, 11] was 50. The “Plant response rating: Galium” value [9, 12] was 75, the “Plant response rating: Galium” value [9, 13] was 80 and the “Plant response rating, Galium” value [9, 14] was 20. For the same compound, the “Plant response rating, Galium” value [9, 15] was 0, the “Plant response rating, Galium” value [9, 16] was 0 and the “Plant response rating, Galium” value [9, 17] was 10. The “Plant response rating, Galium” value [9, 18] was 30 and the “Plant response rating, Galium” value [9, 19] was 80.
